Read-outs that look alike come from different tables or passages of the source.
Columns and labels:
[1] = system: db/db mice; details: Zhang et al., 2019; cited from earlier work
[2] = system: 3T3-L1 adipocytes; assay: Oil Red O staining of intracellular lipids in adipocytes; type: cell-based, mouse; details: 10 μM peptide, 24 h
Method: 3T3-L1 mouse embryo fibroblasts were purchased from the American Type Culture Collection (ATCC Manassas, Va.) and maintained in a humidified atmosphere of 5% CO2, 95% air at 37° C. in Dulbecco's modified Eagle's growth medium (DMEM) with high glucose ([…]), supplemented with 10% fetal calf serum, and 1% penicillin-streptomycin. For R-Tf-D-LP4 peptide treatment, […] cells (6×10^5/ml at 70-80% confluence) were incubated with the R-Tf-D-LP4 peptide in 500 μl serum-free medium for 24 h at 37° C. and 5% CO2. The cells were then stained with Oil red O as described below.
3T3-L1 cells were washed with PBS, fixed with formaldehyde for 15 min, and then subjected to Oil Red O staining for 30 min at room temperature followed by staining with Hematoxylin. Microscope images were collected to visualize the red oil droplets in the cells. Finally, the cells were washed with H2O followed by three washes with 60% isopropanol with gentle rocking. The Oil Red O stain was extracted with 100% isopropanol for 5 min and the absorbance at 492 nm was measured and normalized to the same number of cells counted before stain extraction.

[3] = system: ob/ob mice; assay: Ob/Ob diabetes mouse model: blood glucose, body weight, Langerhans islets; type: in vivo; details: 14 mg/kg intravenous three times a week
Method: Six week old male (C57BL/6) Ob/Ob (Jackson Laboratory, Bar Harbor, Me.) mice were treated with R-Tf-D-LP4 (14 mg/Kg) from week 6 to week 13 by intravenous administration of the R-Tf-D-LP4 peptide in 100 μl of Hank's balanced salts solution (HBSS) without calcium three times a week. A control group received 100 μl of 0.8% DMSO in HBSS buffer injected intravenously. The final blood DMSO concentration was 0.07% in both control and peptide-treated mice. Blood glucose levels were measured once a week. At the end of the experiment, the mice were sacrificed, and the pancreas was removed and fixed with formaldehyde, embedded in paraffin, sectioned, and subjected to immunefluorescent (IF). The experimental protocol used in the mouse model was approved by the Institutional Animal Care and Use Committee.
(§1) Immunohistochemistry (IHC) and immunofluorescence (IF) staining was performed on 5 μm-thick formalin-fixed and paraffin-embedded pancreatic tissue sections. Sections were deparaffinized (5 minutes in xylene, 3 times), followed by rehydration with a graded ethanol series (50%, 70%, 95%, 100%). Antigen retrieval was performed by 20 min incubation in preheated 0.01 M citrate buffer, pH 6.0 at 95-98° C. Sections were washed with PBS pH 7.4 containing 0.1% Triton-X100 (PBST), incubated in 10% NGS and 1% BSA for 2 h, followed by overnight incubation at 4° C. with primary antibodies (see Table 1). Sections were then washed with PBST. For IHC staining, endogenous peroxidase activity was blocked by incubating the sections in 3% H2O2 for 15 min. Following washing with PBST, sections were incubated for 2 h with the appropriate secondary HRP-conjugated antibodies. Sections were washed with PBST and peroxidase activity was visualized by incubating with DAB. After rinsing in water, the sections were counter-stained with hematoxylin, dehydrated with a graded ethanol series (50-100%), incubated in xylene, and mounted with mounting medium. Finally, images from the sections were collected using an automatic digital slide scanner (Panoramic
(§2) MIDI II, 3DHISTECH) with the same light intensity and exposure time. Non-specific control experiments were carried out using the same protocols but omitting incubation with primary antibodies. For IF staining, sections were incubated for 2 h with the appropriate secondary Alexa Fluor conjugated antibodies. Sections were washed with PBST, counter—stained with DAPI (0.07 μg/ml), washed with PBST, and mounted with mounting media. […]
STZ/HFD-32-fed mice at the end of study before sacrifice. In the case of the ob/ob mice, weekly blood samples were collected from the tail, and blood glucose levels were measured immediately using an Accu-Check Performa blood glucose meter.

[4] = system: STZ/HFD-32-fed mice; assay: NAFLD/diabetes mice model (STZ/HFD-32-fed mice): number and size of Langerhans islets, blood glucose; type: in vivo, mouse; details: for Average No. of islets per mouse / Total No. of islets: 14 mg/kg i.v. three times a week
Text: The HFD-32 diet was as described previously (Fujii, M., et al. Med Mol Morphol, 2013. 46(3): p. 141-52; 507.6 kcal/100 g, 56.7% kcal from fat) comprising 5% egg white powder (MM Ingredients, Wimborne, UK), 6.928% lactose (Pharma Grade, Nelson, UK), 15.88% beef fat (contains 80% fat), 5% AIN93G-mineral mixture, 0.002% tertiary butyl hydroquinone and 1.4% AIN93VX-vitamin mix (MP Biomedical, Illkirch, France), 24.5% milk casein (Shaanxi Fuheng Biotechnology, Xi'an, China), 20% safflower oil (high oleic acid content) (Bustan Briut, Galil, Israel), 6.45% sucrose, 0.43% L-cysteine, 5.5% crystalline cellulose (Sigma), 0.36% choline bitartrate and 8.25% maltodextrin (Bulk Powders, Colchester, UK). Control C57BL/6 mice were fed with a standard chow diet (408.4 kcal/100 g, 57% kcal from carbohydrates, 27% kcal from proteins, 16% from fat (V1154-703, S sniff Spezialdaten, Sosset, Germany).
(§3) Male C57BL/6 mice were purchased from Envigo (Jerusalem, Israel). In order to generate the diabetes-based steatosis-NASH mouse model, 2-day-old mice were subjected to a single, low dose subcutaneous injection of streptozotocin (STZ) (200 μg/mouse) and then were fed with the HFD-32 high fat diet starting at the end of week 4. The mice manifested steatosis at 6 weeks and NASH at 8 weeks. These mice are designated herein interchangeably as “NAFLD/diabetes mice model” and “STZ/HFD-32-fed mice”. Mice affected with steatosis were treated with R-Tf-D-LP4 (14 mg/kg) from week 6 to week 8, and mice affected with NASH from week 8 to week 10. The R-Tf-D-LP4 peptide at 14 mg/kg (in 100 μl of Hank's balanced salts solution (HBSS) without calcium) was administered intravenously three times a week. Control groups were intravenously injected with 100 μl of 0.8% DMSO in HBSS buffer from week 6 to week 8 for steatosis affected mice and from week 8 to week […] for NASH affected mice. The final blood DMSO concentration was 0.07% in control and peptide-treated mice.
At the end of the experiment, the mice were sacrificed by CO2 inhalation and the livers and pancreases were removed. Livers were photographed and the lipid content was assessed. For this purpose, part of the liver was frozen in OCT (optimal cutting temperature) compound, embedded, sectioned, and stained with oil red O. The pancreases were fixed with formaldehyde, embedded in paraffin, sectioned, and subjected to immunohistochemical (IHC) or immunefluorescent (IF) staining, as described below.
as §1
as §2, with “antibodies.” for “antibodies. Sections were washed with PBST, counter—stained with DAPI (0.07 μg/ml), washed with PBST, and mounted with mounting media.”

[5] = system: ob/ob mice; details: diabetic (ob/ob) mice and NAFLD affected mice; Pittala et al., Cells 2020; cited from earlier work
[6] = system: STZ/HFD-32-fed mice; details: 2019, cited from earlier work
[7] = system: Glut-2; assay: Glut-2 IF staining of pancreatic sections of STZ/HFD-32-fed mice; type: in vivo, mouse; details: STZ/HFD-32-fed mice at steatosis
Method: as §3
(§4) At the end of the experiment, the mice were sacrificed by CO2 inhalation and the livers and pancreases were removed. Livers were photographed and the lipid content was assessed. […]

[8] = system: VDAC1; assay: VDAC1 IHC/IF staining of Langerhans islets of STZ/HFD-32-fed mice; type: in vivo, mouse
Method: Male C57BL/6 mice were purchased from Envigo (Jerusalem, Israel). In order to generate the diabetes-based steatosis-NASH mouse model, 2-day-old mice were subjected to a single, low dose subcutaneous injection of streptozotocin (STZ) (200 μg/mouse) and then were fed with the HFD-32 high fat diet starting at the end of week 4. The mice manifested steatosis at 6 weeks and NASH at 8 weeks. These mice are designated herein interchangeably as “NAFLD/diabetes mice model” and “STZ/HFD-32-fed mice”. Mice affected with steatosis were treated with R-Tf-D-LP4 (14 mg/kg) from week 6 to week 8, and mice affected with NASH from week 8 to week 10. The R-Tf-D-LP4 peptide at 14 mg/kg (in 100 μl of Hank's balanced salts solution (HBSS) without calcium) was administered intravenously three times a week. […]
as §4
The expression of VDAC1 was examined in the pancreas of STZ/HFD-32 diet-fed mice, representing NAFLD affected mice on a diabetic background with and without R-Tf-D-LP4 peptide treatment as compared to the levels in islets from mice fed with chow-diet (FIG. 5). Formaldehyde-fixed, paraffin-embedded pancreas sections were analyzed by IHC staining for VDAC1 using anti-VDAC1 specific antibodies. […]

[9] = system: PDX1; assay: PDX1 IF co-staining in pancreas of STZ/HFD-32-fed mice; type: in vivo, mouse
Method: as §3, §4

[10] = system: Langerhans islets; assay: Glucagon IHC staining of Langerhans islets (islet morphology) in STZ/HFD-32-fed mice; type: in vivo, mouse
Method: as §3, §4

[11] = system: Ki-67; assay: Ki-67 IF staining (proliferation) in pancreas of STZ/HFD-32-fed mice; type: in vivo, mouse; details: steatosis stage; compared to chow diet-fed and STZ/HFD-32-fed mice
Method: as §3, §4

Q: With `O=C(CC(CO)N1CCN(c2ccc(OC(F)(F)F)cc2)CC1)Nc1ccc(Cl)cc1` (stereo not drawn) [VBIT-4, N-(4-chlorophenyl)-4-hydroxy-3-(4-(4-(trifluoromethoxy)phenyl)piperazin-l-yl) butanamide] as the compound, how does the glucose tolerance [1] read?
A: The glucose tolerance was “maintained normal glucose tolerance”.

Q: And the hyperglycemia [1]?
A: Its hyperglycemia is “prevented hyperglycemia”.

Q: What about the insulin secretion [1] of the same compound?
A: The insulin secretion was “stimulated insulin secretion”.

Q: Which “decrease in the amount of lipid (extraction of Oil red O stain)” value [2] does the source give for “D-Lys-D-Trp-D-Thr-D-Trp-D-Lys-D-Asn-D-Ser-D-Asn-D-Gly-D-Ala-D-Thr-D-Trp-D-Ala-D-Leu-D-Asn-D-Val-D-Ala-D-Thr-D-Glu-D-Leu-D-Lys-D-Lys-D-Glu-D-Trp-D-Thr-D-Trp-D-Ser-His-Arg-Pro-Tyr-Ile-Ala-His [R-Tf-D-LP4]” here?
A: Its value is 90%.

Q: What about the blood glucose levels [3] of the same compound?
A: The blood glucose levels was “reduced the levels of blood glucose”.

Q: And the insulin production [3]?
A: The insulin production was “improved insulin production”.

Q: And the “number of Langerhans islets” value ([3]; H&E and anti-insulin staining)?
A: The value was “increased the number of islets”.

Q: And the “body weight (weekly average weight)” value ([3]; followed for 7 weeks)?
A: The value was “no such effect was observed”.

Q: What about the “number of islets per mouse, Islet size, 1-50 nm” value ([4]; NASH) of the same compound?
A: Its value is 16.

Q: And the “number of islets per mouse, Islet size, 51-100 nm” value ([4]; NASH)?
A: The value was 12.

Q: And the “number of islets per mouse, Islet size, 101-150 nm” value ([4]; NASH)?
A: Its value is 4.

Q: What about the “number of islets per mouse, Islet size, 151-300 nm” value ([4]; NASH) of the same compound?
A: Its value is 3.

Q: And the “Average No. of islets per mouse” value ([4]; NASH, week 8 to 10)?
A: Its value is 35.

Q: What about the “Total No. of islets” value ([4]; NASH, week 8 to 10, n = 10) of the same compound?
A: The value was 354 (n = 10).

Q: What about the “size and number of Langerhans islets” value ([4]; STZ/HFD-32-fed mice, steatosis or NASH stage) of the same compound?
A: Its value is “both the size and the number of Langerhans islets were increased”.

Q: And the blood glucose levels ([4]; STZ/HFD-32 mice model)?
A: The blood glucose levels was “reduced blood glucose levels”.

Q: What about the “insulin content within the islets” value ([4]; STZ/HFD-32 mice model) of the same compound?
A: Its value is “increased insulin content within the islets”.

Q: And the “number of islets per mouse, Islet size, 1-50 nm” value ([4]; Steatosis)?
A: The value was 16.

Q: And the “number of islets per mouse, Islet size, 51-100 nm” value ([4]; Steatosis)?
A: The value was 8.

Q: And the “number of islets per mouse, Islet size, 101-150 nm” value ([4]; Steatosis)?
A: The value was 2.

Q: And the “number of islets per mouse, Islet size, 151-300 nm” value ([4]; Steatosis)?
A: The value was 1.

Q: And the “Average No. of islets per mouse” value ([4]; Steatosis, week 6 to 8)?
A: The value was 27.

Q: And the “Total No. of islets” value ([4]; Steatosis, week 6 to 8, n = 17)?
A: The value was 451 (n = 17).

Q: And the “further increase of the number of islets over chow diet level” value ([4]; mice affected with NASH)?
A: The value was 30%.

Q: What about the “number of the islets compared with chow diet-fed mice” value ([4]; mice with steatosis) of the same compound?
A: The value was “to the level observed in mice fed with chow diet”.

Q: And the blood glucose levels [5]?
A: Its blood glucose levels is “reduced blood glucose levels”.

Q: What about the “β-oxidation in the liver” value ([6]; STZ/HFD-32-fed mice, Pittala et al.) of the same compound?
A: Its value is “accelerated β-oxidation in the liver”.

Q: What about the liver pathology ([6]; mouse model for NAFLD, WO 2017/037711, Pittala et al.) of the same compound?
A: Its liver pathology is “reverse liver pathology to a normal-like state”.

Q: What about the “Glut-2 expression in islets” value [7] of the same compound?
A: Its value is “re-expressed”.

Q: And the “VDAC1 staining level in the islets” value ([8]; IHC, 14 mg/kg)?
A: The value was “this level decreased”.

Q: What about the “islet morphology and size (IF co-staining VDAC1 and insulin)” value ([8]; steatosis stage) of the same compound?
A: Its value is “displayed a normal morphology and large islets”.

Q: What about the PDX1 staining level ([9]; co-staining PDX1 and glucagon, over the level in control chow-fed mice) of the same compound?
A: Its PDX1 staining level is “highly increased”.

Q: And the PDX1 staining level ([9]; co-staining PDX1 and insulin)?
A: The PDX1 staining level was “showed a higher level of staining for PDX1”.

Q: And the “islet morphology (localization of glucagon-producing cells)” value ([10]; NASH stage)?
A: Its value is “completely restored”.

Q: What about the “islet morphology (localization of glucagon-producing cells)” value ([10]; steatosis stage) of the same compound?
A: The value was “improved to some extent”.

Q: And the “increase in number of Ki-67 positive cells in the islet interior” value [11]?
A: Its value is “about 8 fold”.

Q: What about the “increase in number of Ki-67 positive cells outside of the islets” value [11] of the same compound?
A: The value was roughly 3 fold.

Source: patent US20230066049A1, “PEPTIDES USEFUL IN PRESERVATION AND/OR RESTORATION OF FUNCTIONAL PANCREATIC ISLETS AND IN TREATING DIABETES” (THE NATIONAL INSTITUTE FOR BIOTECHNOLOGY IN THE NEGEV LTD., priority 2020, published 2023)
